In the NIST ThermoML archive (doi:10.1021/je400408w):

Assays:
[1] = 101.33 kPa, Liquid; for speed of sound: Pulse-echo method; for mass density: Vibrating tube method
[2] = molar heat capacity at constant pressure; conditions: 100 kPa, Liquid
[3] = molar heat capacity at constant pressure; xn = mol fraction of the nth substance listed; conditions: 100 kPa, Liquid

Cc1ccccc1Cl [2-chlorotoluene]
Conditions | mass density, 293.15 K [kg/m3] | mass density, 298.15 K [kg/m3] | mass density, 303.15 K [kg/m3] | molar heat capacity at constant pressure, 293.15 K [J/K/mol] | molar heat capacity at constant pressure, 298.15 K [J/K/mol] | molar heat capacity at constant pressure, 303.15 K [J/K/mol] | speed of sound, 293.15 K [m/s] | speed of sound, 298.15 K [m/s] | speed of sound, 303.15 K [m/s]
[1] | 1082.22 | 1077.34 | 1072.46 | – | – | – | 1316.8 | 1298.7 | 1280.7
[2] | – | – | – | 176.43 | 178.21 | 180.01 | – | – | –

O=C1CCCN1 [2-pyrrolidinone]
Conditions | mass density, 293.15 K [kg/m3] | mass density, 298.15 K [kg/m3] | mass density, 303.15 K [kg/m3] | molar heat capacity at constant pressure, 293.15 K [J/K/mol] | molar heat capacity at constant pressure, 298.15 K [J/K/mol] | molar heat capacity at constant pressure, 303.15 K [J/K/mol] | speed of sound, 293.15 K [m/s] | speed of sound, 298.15 K [m/s] | speed of sound, 303.15 K [m/s]
[1] | 1111.28 | 1107.15 | 1103.06 | – | – | – | 1651.4 | 1635 | 1618.7
[2] | – | – | – | 168.36 | 169.55 | 171.18 | – | – | –

Cc1cccc(Cl)c1 [3-chlorotoluene]
Conditions | mass density, 293.15 K [kg/m3] | mass density, 298.15 K [kg/m3] | mass density, 303.15 K [kg/m3] | molar heat capacity at constant pressure, 293.15 K [J/K/mol] | molar heat capacity at constant pressure, 298.15 K [J/K/mol] | molar heat capacity at constant pressure, 303.15 K [J/K/mol] | speed of sound, 293.15 K [m/s] | speed of sound, 298.15 K [m/s] | speed of sound, 303.15 K [m/s]
[1] | 1072.12 | 1067.23 | 1062.33 | – | – | – | 1313.6 | 1295.5 | 1277.3
[2] | – | – | – | 175.21 | 176.46 | 177.67 | – | – | –

Cc1ccc(Cl)cc1 [4-chlorotoluene]
Conditions | mass density, 293.15 K [kg/m3] | mass density, 298.15 K [kg/m3] | mass density, 303.15 K [kg/m3] | molar heat capacity at constant pressure, 293.15 K [J/K/mol] | molar heat capacity at constant pressure, 298.15 K [J/K/mol] | molar heat capacity at constant pressure, 303.15 K [J/K/mol] | speed of sound, 293.15 K [m/s] | speed of sound, 298.15 K [m/s] | speed of sound, 303.15 K [m/s]
[1] | 1069.27 | 1064.37 | 1059.46 | – | – | – | 1306.5 | 1288.4 | 1270.3
[2] | – | – | – | 175.66 | 177.95 | 180.37 | – | – | –

Cc1ccc(Cl)cc1 [4-chlorotoluene] + CN1CCCC1=O
molar heat capacity at constant pressure [J/K/mol], [3]
Conditions | 293.15 K | 298.15 K | 303.15 K
x2 = 0 | 175.66 | 177.95 | 180.37
x2 = 0.0671 | 176.7 | 178.71 | 180.9
x2 = 0.1128 | 177.44 | 179.35 | 181.36
x2 = 0.1487 | 178.03 | 179.8 | 181.81
x2 = 0.1876 | 178.67 | 180.38 | 182.29
x2 = 0.2219 | 179.21 | 180.88 | 182.72
x2 = 0.2615 | 179.85 | 181.44 | 183.16
x2 = 0.2987 | 180.33 | 181.87 | 183.61
x2 = 0.3328 | 180.77 | 182.28 | 183.94
x2 = 0.3728 | 181.29 | 182.72 | 184.22
x2 = 0.4137 | 181.62 | 183.02 | 184.44
x2 = 0.4512 | 181.89 | 183.22 | 184.54
x2 = 0.4928 | 182.07 | 183.31 | 184.53
x2 = 0.5316 | 182.09 | 183.2 | 184.46
x2 = 0.5773 | 181.94 | 182.93 | 184.08
x2 = 0.6154 | 181.61 | 182.53 | 183.54
x2 = 0.6542 | 181.16 | 182.01 | 182.89
x2 = 0.6927 | 180.46 | 181.23 | 182.04
x2 = 0.7326 | 179.54 | 180.21 | 180.88
x2 = 0.7732 | 178.32 | 178.9 | 179.49
x2 = 0.8142 | 176.8 | 177.33 | 177.84
x2 = 0.8315 | 176 | 176.54 | 177.12
x2 = 0.8715 | 174.08 | 174.58 | 175.13
x2 = 0.9153 | 171.57 | 172.16 | 172.62
x2 = 0.9534 | 169.04 | 169.62 | 170.26
